Survival and solubility data for 2 molecules are collected here from publication PMC3205148 (International Journal of Nanomedicine, 2011).

≈ marks a conversion by molar mass, not a printed value.

The solubility is the dissolved amount per volume that the medium holds. A low value points to little dissolved substance.

The subject of one data set is OVCAR-3. Conditions: day 300, OVCAR-3-bearing SCID mice; cited from earlier work.
The nature of data set [1]: Solubility in Miglyol 812. In kind it is physicochemical. The settings on record: Miglyol 812, oil or lipid.

For the molecule `CCCCCCCCCCCCCCC(Br)C(=O)O[C@@H](C(=O)O[C@H]1C[C@@]2(O)[C@@H](OC(=O)c3ccccc3)[C@@H]3[C@]4(OC(C)=O)CO[C@@H]4C[C@H](O)[C@@]3(C)C(=O)[C@H](O)C(=C1C)C2(C)C)[C@@H](NC(=O)OC(C)(C)C)c1ccccc1` (some centres unmarked) [2′-(2-bromo)-hexadecanoyl DX], the Survival in the data set on OVCAR-3 is 100%.
On to `CC(=O)O[C@@]12CO[C@@H]1C[C@H](O)[C@@]1(C)C(=O)[C@H](O)C3=C(C)[C@@H](OC(=O)[C@H](O)[C@@H](NC(=O)OC(C)(C)C)c4ccccc4)C[C@@](O)([C@@H](OC(=O)c4ccccc4)[C@H]21)C3(C)C` [DX, Docetaxel], for which the solubility in data set [1] is 36.11 ± 0.1 mg/mL (≈ 44.7 mM).
